Patent publication US10822317B2, “Methods and compositions for wound healing” (QBiotics Limited, priority 2013, dated 2020)

System: mouse stroma of human SK-Mel-28 xenografts
Experiment: Gene expression in mouse stroma of human tumour xenografts
Assay type: in vivo
Details: 30 μg intratumoural
Procedure: Mouse stroma in human tumour xenografts were obtained from mice in which the Sk-Mel-28 human melanoma cell line was injected subcutaneously into 2 sites on the flanks of each BALB/c FoxnInu mouse (2×10^6 cells/site) and allowed to grow to approximately 7 mm diameter. Each tumour was then injected with 50 μL of 20% propylene glycol containing 30 μg Compound 1 or with 50 µL of 20% propylene glycol. At different times after injection a mouse was euthanased and the tumours harvested, the skin covering removed, and the intact tumours stored at −80° C.
RNA was extracted from 30 mg of frozen tumour or 1×10^7 cells using the QiagenRNeasyPlus Mini Kit, according to manufacturer's instructions, then quantitated with a NanoDrop instrument and integrity confirmed on denaturing agarose gels bearing a 1 kb DNA marker and stained with ethidium bromide.
Approximately 500 ng of total unlabelled RNA was adjusted to a final volume of 11 μL with nuclease-free water. The RNA was incubated with 9 μL of the reverse transcriptase master mix (1 μL of T7 Oligo (dT) Primer, 2 μL of 10× first strand buffer, 4 μL of dNTP mix, 1 μL of RNase inhibitor and 1 μL of ArrayScript) at 42° C. for 2 hr. This was followed by the second strand cDNA synthesis step which involved a further incubation at 16° C. for 2 hr with 80 µL of the second strand master mix (63 μL nuclease-free water, 10 μL 10× second strand buffer, 4 μL dNTP mix, […] and 1 μL RNase H). The cDNA was purified by filtering through a cDNA Filter Cartridge with 250 μL of cDNA binding buffer and washing with 500 μL of the wash buffer provided in the kit. Purified cDNA was eluted with 20 μL of 55° C. nuclease-free water. Each cDNA sample was incubated with 7.5 μL of the IVT master mix (2.5 μL of T7 10× reaction buffer, 2.5 μL of T7 enzyme mix and 2.5 μL biotin-NTP mix) at 37° C. for 16 hr. The reaction was stopped with the addition of 75 μL of nuclease-free water to each cRNA sample. The biotinylated, amplified RNA was purified by filtering the cRNA samples through cRNA Filter Cartridges with 350 μL of cRNA binding buffer and 250 μL of 100% ethanol mixed together prior to loading onto the filters. The cRNA filter cartridges with attached RNA were then washed with 650 μL of wash buffer before eluting purified cRNA with 200 μL of 55° C. nuclease-free water.
The cRNA samples were heated at 65° C. for 5 min and collected by pulse centrifugation. After heating at 65 degrees for 5 min, approximately 750 ng of the cRNA sample was aliquoted into separate tubes to which were added ˜5 μL of RNase-free water and 10 μL of Hyb Mix. Approximately 15 μL of the prepared cRNA mix was loaded onto the Illumina Expression BeadChips. Subsequent steps of hybridisation and washing were carried out according to the Whole-Genome Gene Expression Direct Hybridization Assay Guide supplied by Illumina.
The Human HT-12 v4 Expression BeadChips cover more than 47,000 transcripts and known splice variants across the human transcriptome. The MouseRef-8 v2.0 Expression BeadChips cover approximately 25,600 well-annotated RefSeq (Reference Sequence) transcripts, comprising over 19,000 unique genes.
BeadChips were read by the iScan System, and transferred via GenomeStudio into GeneSpring GX v12.5 (Agilent Technologies, Santa Clara, Calif., USA). The expression values were normalized using quantile normalization with default settings. The entities were filtered based on the detection score calculated by GenomeStudio where p≤0.05 was considered significant.
Expression data using mouse gene-specific microarrays were performed for 2-3 individual human SK-Mel-28 xenografts treated by intratumoural injection with 30 μg of Compound 1, along with 3 vehicle-only sites, the data combined. Only those mouse genes for which expression in the Compound 1 treated site was >2 times higher or >2 times lower than in the vehicle-injected site were examined for relevance to wound healing.

CC=C(C)C(=O)OC1C(C)C2(O)C(C3OC3(CO)C(O)C3(O)C(=O)C(C)=CC32)C2C(C)(C)C12OC(=O)C(C)CC (stereo not drawn) [Compound 1, 12-tigloyl-13-(2-methylbutanoyl)-6,7-epoxy-4,5,9,12,13,20-hexahydroxy-1-tigliaen-3-one]
Acta1: Direction of regulation (0.5 h): Up | Tgm2: Direction of regulation (0.5 h): Up | Thbs2: Direction of regulation (0.5 h): Down | Thbs2: Fold change in expression (0.5 h, Down): 3.98 fold | Acta1: Fold change in expression (0.5 h, Up): 9.3 fold | Tgm2: Fold change in expression (0.5 h, Up): 2.67 fold | Col17a1: Direction of regulation (1 h): Up | Itga7: Direction of regulation (1 h): Up | Krt5: Direction of regulation (1 h): Up | Krt10: Direction of regulation (1 h): Up | Krt15: Direction of regulation (1 h): Up | Krt17: Direction of regulation (1 h): Up | Krtdap: Direction of regulation (1 h): Up | LCe1a1: Direction of regulation (1 h): Up | Lce1a2: Direction of regulation (1 h): Up | Lce1b: Direction of regulation (1 h): Up | Lce1m: Direction of regulation (1 h): Up | Lce1d: Direction of regulation (1 h): Up | Lor: Direction of regulation (1 h): Up | krt14: Direction of regulation (1 h): Up | Col17a1: Fold change in expression (1 h, Up): 2.7 fold | Itga7: Fold change in expression (1 h, Up): 2.1 fold | Krt5: Fold change in expression (1 h, Up): 2.8 fold | Krt10: Fold change in expression (1 h, Up): 7 fold | Krt15: Fold change in expression (1 h, Up): 2.3 fold | Krt17: Fold change in expression (1 h, Up): 2.9 fold | Krtdap: Fold change in expression (1 h, Up): 7 fold | LCe1a1: Fold change in expression (1 h, Up): 2.7 fold | Lce1a2: Fold change in expression (1 h, Up): 3 fold | Lce1b: Fold change in expression (1 h, Up): 4.8 fold | Lce1m: Fold change in expression (1 h, Up): 4.9 fold | Lce1d: Fold change in expression (1 h, Up): 3.3 fold | Lor: Fold change in expression (1 h, Up): 11.6 fold | krt14: Fold change in expression (1 h, Up): 9.4 fold | Col17a1: Direction of regulation (2 h): Up | Krt10: Direction of regulation (2 h): Up | Lor: Direction of regulation (2 h): Up | krt14: Direction of regulation (2 h): Up | Col17a1: Fold change in expression (2 h, Up): 2 fold | Krt10: Fold change in expression (2 h, Up): 2.4 fold | Lor: Fold change in expression (2 h, Up): 2.8 fold | krt14: Fold change in expression (2 h, Up): 5.6 fold | Acta1: Direction of regulation (4 h): Up | CXCL1: Direction of regulation (4 h): Up | Col17a1: Direction of regulation (4 h): Up | Egr1: Direction of regulation (4 h): Up | Krt10: Direction of regulation (4 h): Up | Krt17: Direction of regulation (4 h): Up | Krt71: Direction of regulation (4 h): Up | Krtdap: Direction of regulation (4 h): Up | LCe1a1: Direction of regulation (4 h): Up | Tgm2: Direction of regulation (4 h): Down | krt14: Direction of regulation (4 h): Up | Tgm2: Fold change in expression (4 h, Down): 2 fold | Acta1: Fold change in expression (4 h, Up): 30.3 fold | CXCL1: Fold change in expression (4 h, Up): 12.1 fold | Col17a1: Fold change in expression (4 h, Up): 3.2 fold | Egr1: Fold change in expression (4 h, Up): 4.7 fold | Krt10: Fold change in expression (4 h, Up): 8.6 fold | Krt17: Fold change in expression (4 h, Up): 10 fold | Krt71: Fold change in expression (4 h, Up): 3.2 fold | Krtdap: Fold change in expression (4 h, Up): 3.8 fold | LCe1a1: Fold change in expression (4 h, Up): 2.8 fold | krt14: Fold change in expression (4 h, Up): 9.7 fold | Acta1: Direction of regulation (8 h): Up | Egr1: Direction of regulation (8 h): Up | Krt10: Direction of regulation (8 h): Down | Krt17: Direction of regulation (8 h): Down | Krt10: Fold change in expression (8 h, Down): 2.1 fold | Krt17: Fold change in expression (8 h, Down): 2 fold | Acta1: Fold change in expression (8 h, Up): 8.5 fold | Egr1: Fold change in expression (8 h, Up): 5.34 fold
